Experimental data as given in patent US11524938B2, “Aromatic sulfonamide derivatives” (Bayer Pharma Aktiengesellschaft, priority 2016, dated 2022).

Molecular target: T1, human P2X4 (Homo sapiens, UniProt Q99571)
T1 sequence (Q99571 1-388): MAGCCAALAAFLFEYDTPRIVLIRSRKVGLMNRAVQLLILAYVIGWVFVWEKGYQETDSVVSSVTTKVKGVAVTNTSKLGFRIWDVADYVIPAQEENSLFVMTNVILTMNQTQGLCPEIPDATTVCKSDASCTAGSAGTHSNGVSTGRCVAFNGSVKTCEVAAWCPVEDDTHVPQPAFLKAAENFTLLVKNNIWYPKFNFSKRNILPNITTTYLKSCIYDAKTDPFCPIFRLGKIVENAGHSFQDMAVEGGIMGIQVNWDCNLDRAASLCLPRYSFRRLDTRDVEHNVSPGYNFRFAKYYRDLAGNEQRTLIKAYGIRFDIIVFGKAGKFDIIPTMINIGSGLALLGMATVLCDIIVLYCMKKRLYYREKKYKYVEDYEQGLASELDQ
Assay: Human P2X4 HEK Cell FLIPR Assay
Format: cell-based
Conditions: agonist Bz-ATP at EC80; for Emax: HEK293, HEK293 cells, percentage of maximal inhibition, read-out: Human P2X4 HEK Cells (FLIPR Assay) avg Efficacy [%]; for IC50: HEK293 cells, individual values listed where some fall outside detection range
Summary of the method: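 Calcium flux read by FLIPR for 120 sec after Bz-ATP challenge at EC80 (established each assay day), following 30 min room-temperature compound preincubation in dye-loaded stable human P2X4 HEK293 cells. Peak RFU over basal normalized to agonist control; IC50, maximal inhibition and Hill coefficient from triplicate means.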

SMILES | Emax | IC50
NS(=O)(=O)c1cc(NC(=O)Cc2ccccc2Cl)ccc1-c1cnc(OC2CCC2)nc1 [Example 316, 2-(2-Chlorophenyl)-N-{4-[2-(cyclobutyloxy)pyrimidin-5-yl]-3-sulfamoylphenyl}acetamide] | 86% | 362 nM
Cc1nc(Cl)ncc1-c1ccc(NC(=O)Cc2ccccc2Cl)cc1S(N)(=O)=O [Example 317, N-[4-(2-Chloro-4-methylpyrimidin-5-yl)-3-sulfamoylphenyl]-2-(2-chlorophenyl)acetamide] | 68% | 1210 nM
NS(=O)(=O)c1cc(NC(=O)Cc2ccccc2Cl)ccc1-c1cc(C(F)(F)F)ccn1 [Example 318, 2-(2-Chlorophenyl)-N-{3-sulfamoyl-4-[4-(trifluoromethyl)pyridin-2-yl]phenyl}acetamide] | 43% | > 25000 nM
NS(=O)(=O)c1cc(NC(=O)Cc2ccccc2Cl)ccc1-c1ccc(Cl)cn1 [Example 319, 2-(2-Chlorophenyl)-N-[4-(5-chloropyridin-2-yl)-3-sulfamoylphenyl]acetamide] | 73% | 7280 nM
Cc1nc(-c2ccc(NC(=O)Cc3ccccc3Cl)cc2S(N)(=O)=O)cn1C [Example 320, 2-(2-Chlorophenyl)-N-[4-(1,2-dimethyl-1H-imidazol-4-yl)-3-sulfamoylphenyl]acetamide] | 51% | > 25000 nM
NS(=O)(=O)c1cc(NC(=O)Cc2ccccc2Cl)ccc1-c1cncc(N2CCCC2)c1 [Example 322, 2-(2-Chlorophenyl)-N-{4-[5-(pyrrolidin-1-yl)pyridin-3-yl]-3-sulfamoylphenyl}acetamide] | 81% | 186 nM
NS(=O)(=O)c1cc(NC(=O)C(O)c2ccccc2Cl)ccc1-c1cnn(C2CC2)c1 (stereo not shown) [Example 323, 2-(2-Chlorophenyl)-N-[4-(1-cyclopropyl-1H-pyrazol-4-yl)-3-sulfamoylphenyl]-2-hydroxyethanamide] | 81% | 2580 nM
NS(=O)(=O)c1cc(NC(=O)C(O)c2ccccc2Cl)ccc1-c1cnn(C(F)F)c1 (stereo not shown) [Example 324, 2-(2-Chlorophenyl)-N-{4-[1-(difluoromethyl)-1H-pyrazol-4-yl]-3-sulfamoylphenyl}-2-hydroxyethanamide] | 59% | 3050 nM
NS(=O)(=O)c1cc(NC(=O)Cc2ccccc2Cl)ccc1-c1cncc(Cl)c1 [Example 325, 2-(2-Chlorophenyl)-N-[4-(5-chloropyridin-3-yl)-3-sulfamoylphenyl]acetamide] | 94% | 9 nM
NS(=O)(=O)c1cc(NC(=O)Cc2ccccc2Cl)ccc1-c1cncc(F)c1 [Example 327, 2-(2-Chlorophenyl)-N-[4-(5-fluoropyridin-3-yl)-3-sulfamoylphenyl]acetamide] | 94% | 11 nM
CC(C)Cn1cc(-c2ccc(NC(=O)Cc3ccccc3Cl)cc2S(N)(=O)=O)cn1 [Example 328, 2-(2-Chlorophenyl)-N-{4-[1-(2-methylpropyl)-1H-pyrazol-4-yl]-3-sulfamoylphenyl}acetamide] | 94% | 12 nM
NS(=O)(=O)c1cc(NC(=O)Cc2ccccc2Cl)ccc1-c1cnn(C2CCCC2)c1 [Example 329, 2-(2-Chlorophenyl)-N-[4-(1-cyclopentyl-1H-pyrazol-4-yl)-3-sulfamoylphenyl]acetamide] | 100% | 13 nM
CC(C)Oc1cccc(-c2ccc(NC(=O)Cc3ccccc3Cl)cc2S(N)(=O)=O)c1F [Example 330, 2-(2-Chlorophenyl)-N-[2′-fluoro-3′-(propan-2-yloxy)-2-sulfamoylbiphenyl-4-yl]-acetamide] | 101% | 14 nM
NS(=O)(=O)c1cc(NC(=O)Cc2ccccc2Cl)ccc1-c1cncc(C(F)(F)F)c1 [Example 331, 2-(2-Chlorophenyl)-N-{3-sulfamoyl-4-[5-(trifluoromethyl)pyridin-3-yl]phenyl}-acetamide] | 66% | 
COc1cc(-c2ccc(NC(=O)Cc3ccccc3Cl)cc2S(N)(=O)=O)cnc1Cl [Example 332, N-[4-(6-Chloro-5-methoxypyridin-3-yl)-3-sulfamoylphenyl]-2-(2-chlorophenyl)-acetamide] | 89% | 326 nM
NS(=O)(=O)c1cc(NC(=O)Cc2c(F)cccc2Cl)ccc1-c1cnn(C2CC2)c1 [Example 333, 2-(2-Chloro-6-fluorophenyl)-N-[4-(1-cyclopropyl-1H-pyrazol-4-yl)-3-sulfamoylphenyl]acetamide] | 101% | 15 nM
Cn1cc(-c2ccc(NC(=O)Cc3cccc(F)c3Cl)cc2S(N)(=O)=O)cn1 [Example 334, 2-(2-Chloro-3-fluorophenyl)-N-[4-(1-methyl-1H-pyrazol-4-yl)-3-sulfamoylphenyl]-acetamide] | 98% | 18 nM

SMILES | Emax | IC50
CC(C)(C)n1cc(-c2ccc(NC(=O)Cc3ccccc3Cl)cc2S(N)(=O)=O)cn1 [Example 335, N-[4-(1-tert-Butyl-1H-pyrazol-4-yl)-3-sulfamoylphenyl]-2-(2-chlorophenyl)acetamide] | 98% | 20 nM
CC(C)Oc1ncccc1-c1ccc(NC(=O)Cc2ccccc2Cl)cc1S(N)(=O)=O [Example 336, 2-(2-Chlorophenyl)-N-{4-[2-(propan-2-yloxy)pyridin-3-yl]-3-sulfamoylphenyl}acetamide] | 109% | 28 nM
NS(=O)(=O)c1cc(NC(=O)Cc2cccc(F)c2Cl)ccc1-c1cnn(C2CC2)c1 [Example 337, 2-(2-Chloro-3-fluorophenyl)-N-[4-(1-cyclopropyl-1H-pyrazol-4-yl)-3-sulfamoylphenyl]acetamide] | 96% | 30 nM
NS(=O)(=O)c1cc(NC(=O)Cc2ccccc2F)ccc1-c1cccnc1 [Example 338, 2-(2-Fluorophenyl)-N-[4-(pyridin-3-yl)-3-sulfamoylphenyl]acetamide] | 91% | 32 nM
Cn1cc(-c2ccc(NC(=O)Cc3c(F)cccc3Cl)cc2S(N)(=O)=O)cn1 [Example 339, 2-(2-Chloro-6-fluorophenyl)-N-[4-(1-methyl-1H-pyrazol-4-yl)-3-sulfamoylphenyl]-acetamide] | 92% | 33 nM
CC(C)(O)c1cc(F)cc(-c2ccc(NC(=O)Cc3ccccc3Cl)cc2S(N)(=O)=O)c1 [Example 340, 2-(2-Chlorophenyl)-N-[3′-fluoro-5′-(2-hydroxypropan-2-yl)-2-sulfamoylbiphenyl-4-yl]acetamide] | 89% | 34 nM
COc1cncc(-c2ccc(NC(=O)Cc3ccccc3Cl)cc2S(N)(=O)=O)c1 [Example 341, 2-(2-Chlorophenyl)-N-[4-(5-methoxypyridin-3-yl)-3-sulfamoylphenyl]acetamide] | 86% | 41 nM
CC(C)(O)c1cccc(-c2ccc(NC(=O)Cc3ccccc3Cl)cc2S(N)(=O)=O)c1 [Example 342, 2-(2-Chlorophenyl)-N-[3′-(2-hydroxypropan-2-yl)-2-sulfamoylbiphenyl-4-yl]acetamide] | 101% | 41 nM
CC(C)n1cc(-c2ccc(NC(=O)Cc3ccccc3F)cc2S(N)(=O)=O)cn1 [Example 343, 2-(2-Fluorophenyl)-N-{4-[1-(propan-2-yl)-1H-pyrazol-4-yl]-3-sulfamoylphenyl}-acetamide] | 101% | 42 nM
NS(=O)(=O)c1cc(NC(=O)Cc2ccccc2F)ccc1-c1cnn(C2CC2)c1 [Example 344, N-[4-(1-Cyclopropyl-1H-pyrazol-4-yl)-3-sulfamoylphenyl]-2-(2-fluorophenyl)-acetamide] | 102% | 44 nM
NS(=O)(=O)c1cc(NC(=O)Cc2ccccc2Cl)ccc1-c1cnn(C2CCCCO2)c1 (stereo not shown) [Example 345, 2-(2-Chlorophenyl)-N-{3-sulfamoyl-4-[1-(tetrahydro-2H-pyran-2-yl)-1H-pyrazol-4-yl]phenyl}acetamide] | 93% | 46 nM
CC(C)(C)n1cc(-c2ccc(NC(=O)Cc3ccccc3F)cc2S(N)(=O)=O)cn1 [Example 346, N-[4-(1-tert-Butyl-1H-pyrazol-4-yl)-3-sulfamoylphenyl]-2-(2-fluorophenyl)acetamide] | 105% | 46 nM
CC(C)(O)c1cc(F)cc(-c2ccc(NC(=O)Cc3ccccc3F)cc2S(N)(=O)=O)c1 [Example 347, N-[3′-Fluoro-5′-(2-hydroxypropan-2-yl)-2-sulfamoylbiphenyl-4-yl]-2-(2-fluorophenyl)acetamide] | 89% | 85 nM
NS(=O)(=O)c1cc(NC(=O)Cc2ccccc2F)ccc1-c1cnn(C2CCCC2)c1 [Example 348, N-[4-(1-Cyclopentyl-1H-pyrazol-4-yl)-3-sulfamoylphenyl]-2-(2-fluorophenyl)-acetamide] | 96% | 47 nM
NS(=O)(=O)c1cc(NC(=O)Cc2ccccc2Cl)ccc1-c1cnn(C2CC2)c1 [Example 349, 2-(2-Chlorophenyl)-N-[4-(1-cyclopropyl-1H-pyrazol-4-yl)-3-sulfamoylphenyl]acetamide] | 99% | 
COCCn1cc(-c2ccc(NC(=O)Cc3c(F)cccc3Cl)cc2S(N)(=O)=O)cn1 [Example 350, 2-(2-Chloro-6-fluorophenyl)-N-{4-[1-(2-methoxyethyl)-1H-pyrazol-4-yl]-3-sulfamoylphenyl}acetamide] | 87% | 49 nM
